The record followed here is US20120070392A1, “COMPOSITION FOR INHIBITING ERYTHEMA CAUSED BY ULTRAVIOLET RADIATION CONTAINING A DIPEPTIDE AS ACTIVE INGREDIENT” (priority 2009, published 2012).

For the first test, the system named is PGE2 production. The test is described as follows: Inhibition of UVB-induced PGE2 production in cultured human keratinocytes (PGE2 assay kit, calibrated with MTT absorbance). In kind it is cell-based.
Conditions: not given
For the substance valine-cysteine [VC], the “% Inhibition against PGE2 Production” value is recorded as 43.3%.

Consider valine-histidine [VH], for which the “% Inhibition against PGE2 Production” value was found to be 47.6%. Still for that read-out and setting: the figure for valine-lysine [VK] is 42.0%; for valine-tyrosine [VY] it is 83.2%; for valine-valine [VV] it is 89.9%.

Still in this test, the particulars now being: 10 μg/ml dipeptide, 24 h pre-treatment, human keratinocytes, UVB 100 mJ/cm^2, medium assayed 24 h after irradiation; 0% or lower expressed as zero; 10% or more regarded as effective.
valine-praline [VP]: the “% Inhibition against PGE2 Production” value came out at 50.5%.

Still in this test, the particulars now being: 10 μg/ml dipeptide, 24 h pre-treatment, human keratinocytes, UVB 100 mJ/cm^2, medium assayed 24 h after irradiation; […]; 10% or more regarded as effective.
valine-glutamic acid [VE]: the “% Inhibition against PGE2 Production” value stood at 24.8%. The same measure, in the same setting: the figure for valine-glutamine [VQ] is 71.2%; for valine-isoleucine [VI] it is 51.7%.

For the substance valine-leucine [VL], the “% Inhibition against PGE2 Production” value is recorded as 47.0%. Same read-out and setting: under valine-phenylalanine [VF] stands 12.2%.
